The values that follow come from patent US20040138272A1, “1,4-Substituted cyclohexane derivatives” (priority 2002, published 2004).

Data set [1] concerns the target glycogen synthatase kinase 3 beta (GSKB) (Homo sapiens, UniProt P49841). Kind of data set: GSK B kinase activity of compounds (FIG. 10). The note with it: 10 uM. Format: biochemical.
The conditions of data set [2]: rat, in vivo, po, 30 mg/kg; cited from earlier work.
Data set [3] addresses MSK1 (Homo sapiens, UniProt O75582). The note with it: cited from earlier work.
Data set [4] deals with PRK2 (Homo sapiens, UniProt Q16513). The note with it: cited from earlier work.
Chain of PRK2 (Q16513 whole entry): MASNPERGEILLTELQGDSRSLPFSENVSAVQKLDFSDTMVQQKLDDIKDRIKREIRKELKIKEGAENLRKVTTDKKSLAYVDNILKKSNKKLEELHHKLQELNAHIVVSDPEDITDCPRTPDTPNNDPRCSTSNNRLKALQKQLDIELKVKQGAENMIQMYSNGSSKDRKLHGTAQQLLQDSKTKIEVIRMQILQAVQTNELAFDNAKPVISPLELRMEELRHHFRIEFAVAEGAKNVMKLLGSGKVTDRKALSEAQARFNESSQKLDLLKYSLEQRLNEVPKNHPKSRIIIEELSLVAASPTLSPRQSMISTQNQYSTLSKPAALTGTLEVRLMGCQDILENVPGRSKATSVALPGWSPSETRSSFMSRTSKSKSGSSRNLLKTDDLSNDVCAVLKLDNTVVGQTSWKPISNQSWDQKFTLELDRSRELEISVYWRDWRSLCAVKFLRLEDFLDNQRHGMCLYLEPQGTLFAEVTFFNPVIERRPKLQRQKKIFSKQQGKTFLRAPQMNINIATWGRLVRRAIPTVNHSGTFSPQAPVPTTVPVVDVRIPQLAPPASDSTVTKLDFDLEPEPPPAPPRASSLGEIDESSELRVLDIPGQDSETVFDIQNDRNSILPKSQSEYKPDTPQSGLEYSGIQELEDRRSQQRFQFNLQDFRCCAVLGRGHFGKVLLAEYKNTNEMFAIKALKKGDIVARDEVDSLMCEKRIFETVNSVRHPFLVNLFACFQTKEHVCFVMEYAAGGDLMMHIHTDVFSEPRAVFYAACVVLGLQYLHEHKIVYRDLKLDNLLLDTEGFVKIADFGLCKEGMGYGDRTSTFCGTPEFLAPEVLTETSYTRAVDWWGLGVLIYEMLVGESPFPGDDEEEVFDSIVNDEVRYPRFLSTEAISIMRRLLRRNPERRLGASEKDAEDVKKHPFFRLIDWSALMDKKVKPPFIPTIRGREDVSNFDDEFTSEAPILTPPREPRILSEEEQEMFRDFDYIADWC
The test system of data set [5] is PHK. Conditions: cited from earlier work.
The conditions of data set [6]: cited from earlier work.
The target in data set [7] is MAPKAP-K1b (Oryctolagus cuniculus, UniProt A0A5F9C4L9). Conditions: cited from earlier work.
Chain of MAPKAP-K1b (A0A5F9C4L9 1-740): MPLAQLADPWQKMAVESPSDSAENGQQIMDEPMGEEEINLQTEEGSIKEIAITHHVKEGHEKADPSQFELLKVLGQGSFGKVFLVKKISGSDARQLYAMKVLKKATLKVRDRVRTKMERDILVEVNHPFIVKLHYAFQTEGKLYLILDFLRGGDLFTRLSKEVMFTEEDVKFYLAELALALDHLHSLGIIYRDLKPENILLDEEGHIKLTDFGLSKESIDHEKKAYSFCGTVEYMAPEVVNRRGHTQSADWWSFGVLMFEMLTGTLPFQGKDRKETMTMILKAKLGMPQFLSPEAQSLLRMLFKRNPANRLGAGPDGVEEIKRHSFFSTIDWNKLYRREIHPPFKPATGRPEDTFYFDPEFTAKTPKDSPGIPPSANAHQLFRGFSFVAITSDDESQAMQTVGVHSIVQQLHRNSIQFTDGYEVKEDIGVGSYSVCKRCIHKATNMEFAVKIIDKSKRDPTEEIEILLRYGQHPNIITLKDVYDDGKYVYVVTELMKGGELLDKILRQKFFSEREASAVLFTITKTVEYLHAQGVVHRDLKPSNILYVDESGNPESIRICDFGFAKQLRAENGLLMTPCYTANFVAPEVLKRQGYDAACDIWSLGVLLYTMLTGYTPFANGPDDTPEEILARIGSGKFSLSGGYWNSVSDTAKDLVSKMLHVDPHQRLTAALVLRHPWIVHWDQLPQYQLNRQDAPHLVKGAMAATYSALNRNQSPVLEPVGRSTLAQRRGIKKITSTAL
The subject of data set [8] is PC12 cells on MAG substrates. Put plainly: Bioassay of PC12 neurite growth on growth inhibitory myelin-associated glycoprotein (MAG) substrates. Format: cell-based. Conditions: Dihydrochloride; for neurite outgrowth on inhibitory MAG substrates (FIG. 4): PC12 cells, 0.31, 3.1 or 31 uM. As to the method: PC-12 cells (ATCC CRL-1721) typically extend neurites in response to NGF, but when plated on inhibitory substrates, this outgrowth is inhibited and the cells remain round. We tested the ability of the new compound to grow neurites when plated on inhibitory substrates.
We used PC12 cells obtained from the American Type Culture Collection. PC12 cells were grown in Dulbecco's modified eagle's medium (DMEM) with 10% horse serum and 5% fetal bovine serum. To test compounds for the ability to overcome growth inhibition, PC12 cells were collected by detaching with trypsin-EDTA (0.05%), then resuspended in DMEM, 1% FBS, and 50 ng/ml nerve growth factor before plating on MAG substrates. MAG used for substrates was purified from myelin after extraction in 1% octylglucoside and separation by ion exchange chromatography (McKerracher et al. 1994, Neuron 13:805-811). Test substrates were prepared as uniform substrates in 96-well plates by drying overnight in the laminar flow hood (Nalge Nunc, Naperville, Ill.). Plates were precoated with polylysine (100 μg/ml) for 3 hours at 37° C., then washed and dried approx. 1 hour. MAG was prepared as a substrate by drying down 8 μg of protein overnight. After plating on the MAG substrate, the cells were grown at 37 C. for two days in the presence or absence of test compound (BA1003, BA1016, BA1017) to allow neurite growth. Polylysine substrates were used as a positive control. Quantitative analysis of neurite outgrowth was with the aid of Northern Eclipse software (Empix Imaging, Mississauga, Ontario). Data analysis and statistics were with Microsoft Excel.
Referring to FIG. 4 there is shown a graph illustrative of experiments performed in triplicate testing the ability of BA-1003, BA-1016 and BA-1017 to overcome growth inhibition by MAG. PC12 cells were plated on MAG substrates alone (MAG) or MAG substrates in the presence of 0.31 uM, 3.1 um or 31 um concentrations of the test compound. The numbers of neurons that grew neurites were scored, and are shown as the percentage of neurite growth.

In data set [9] the test system is NG108-15 neuronal cell line. Kind of data set: Rapid bioassay of neurite growth in NG108-15 cells. Conditions: NG108 cells, 3.1 to 31 μM. Type of data set: cell-based. Here is the method:
When neurons are placed on inhibitory substrates in tissue culture, the neurons remain rounded. When an effective Rho kinase inhibitor is added to the neurons, the neurons are able to grow neurites on myelin substrates. The time that it takes for neurons to grow neurites after the addition of a Rho kinase inhibitor is about the same as the time that it takes for neurons to grow neurites if the neurons had been plated on growth permissive substrate such as laminin or polylysine, which time is typically 1 to 2 days in cell culture. An assessment of resulting neurite growth can be scored by visual means. If needed, a quantitative assessment of neurite growth can be performed. This involves measuring after a time such as 1 to 2 days the neurite length a) in control cultures where neurons are plated on myelin substrates and left untreated with Rho kinase inhibitor for such time, b) in positive control cultures, wherein for example neurons are plated on polylysine but left untreated with Rho kinase inhibitor for such time, and c) in cultures analogous to a) and b) that are treated with different concentrations of a Rho kinase inhibitor for such time. […] In this assay, NG108 cells are plated on plastic in the presence or absence of the test substance (a Rho kinase inhibitor). […] The relative efficacy can be assessed by fixing the cultures 5 hours after plating, and counting the number of cells that have grown neurites.
A rapid bioassay is used to determine the effect of a test compounds on the stimulation of neurite growth in vitro. A neuronal cell line, NG108-15 (ATCC HB-12317), is maintained in culture in Dulbecco's minimal essential medium (DMEM) supplemented with 10% fetal bovine serum, Penicillin/Streptomycin and HAT supplement (Gibco/BRL). For the bioassay, the cells are collected by trypsinisation and ressuspended in DMEM supplemented with 5% FBS, Penicillin/Streptomycin, HAT supplement and 0.25 mg/ml cAMP, adjusted to 1.0×10^4 cells/ml. The cells are plated into wells of a 96 well plate at 100 μls (1000 cells)/well. Cells are incubated 4 h at 37° C. and 5% CO2 in presence of small molecules or cethrin at a concentration of 1000 cells per well of a 96-wells plate in a final volume of 100 ul.
After incubation, cells are fixed by adding […] 16% PFA and 5.4 μls 2.5% glutaraldehyde to the media in each well. The wells are stained with cresyl violet 0.05% , 100 μls/well for 15 min. Cells with neurites (length≧one cell body) are counted using an inverted light microscope. The % neurite outgrowth is determined by calculating the number of cells with neurites over the total number of counted cells.

The target in data set [10] is T1, ROCK II (Rattus norvegicus, UniProt Q62868).
T1 construct: purchased Upstate (Lake Placid, N.Y.)
T1 sequence (Q62868 11-550 limits assumed): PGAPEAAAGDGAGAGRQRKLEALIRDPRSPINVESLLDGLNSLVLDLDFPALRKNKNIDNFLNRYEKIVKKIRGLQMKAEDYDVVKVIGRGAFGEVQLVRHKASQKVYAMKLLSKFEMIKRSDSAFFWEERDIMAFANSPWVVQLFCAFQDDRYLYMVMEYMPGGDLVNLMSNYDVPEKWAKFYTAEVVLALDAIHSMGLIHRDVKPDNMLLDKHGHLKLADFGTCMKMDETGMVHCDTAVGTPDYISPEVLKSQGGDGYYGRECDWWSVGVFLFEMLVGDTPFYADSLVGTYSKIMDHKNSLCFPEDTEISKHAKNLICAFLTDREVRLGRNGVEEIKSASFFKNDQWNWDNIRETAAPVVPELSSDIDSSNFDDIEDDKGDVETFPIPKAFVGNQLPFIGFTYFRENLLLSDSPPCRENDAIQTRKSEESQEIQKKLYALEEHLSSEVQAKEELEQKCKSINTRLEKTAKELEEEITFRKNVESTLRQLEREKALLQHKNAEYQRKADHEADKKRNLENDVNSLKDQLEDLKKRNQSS
Kind of data set: ROCK II kinase assay with [γ-32P] ATP and myelin basic protein substrate (FIG. 3). Format: biochemical. Conditions: 100 μM ATP, 30 min at 30° C. An excerpt:
The ability of compounds to inhibit ROK activity may be tested in a cell-free assay system using recombinant ROK, radiaoactive ATP, and Myelin basic Protein (MBP). MBP is a highly phosphorylated protein, is inexpensive to buy in purified form, is phosphorylated by ROK, and is used as the assay substrate for phosphorylation. Recombinant ROK has been prepared from a number of sources. Overexpression in mammalian cells provides a convenient, easily renewed source of ROK activity. Measurement of Rho-associated kinase (ROK) activity is important to determine the potency of novel inhibitors. MBP is a substrate for ROK and a number of other protein kinases, making it useful both to quantitate ROK activity and to indicate the potency and specificity of novel inhibitors for ROK. […]
ROCK II was assayed in 20 mM MOPS, pH 7.2, 25 mM β-glycerophosphate, 5 mM EGTA, 1 mM sodium orthovanadate, 1 mM dithiothreitol with dephosphorylated myelin basic protein (MBP, 0.2 mg/ml) as substrate with or without BA-1016 or BA-1017. […] Assays were initiated by adding Mg^2+/ATP and terminated by spotting 40 μl of each reaction onto phosphocellulose paper (P81 paper, Whatman), followed by washes in 0.75% phosphoric acid to remove ATP and then dried, put in scintillation cocktail and counted to measure ^32P incorporation. Radioactivity is measured using a scintillation counter. […]

Molecules are shown by their SMILES. Entries after “also recorded” stand apart in the source; their conditions may differ. Where two headings read alike, the source gives them in different places.

Chain of glycogen synthatase kinase 3 beta (GSKB) (P49841 whole entry): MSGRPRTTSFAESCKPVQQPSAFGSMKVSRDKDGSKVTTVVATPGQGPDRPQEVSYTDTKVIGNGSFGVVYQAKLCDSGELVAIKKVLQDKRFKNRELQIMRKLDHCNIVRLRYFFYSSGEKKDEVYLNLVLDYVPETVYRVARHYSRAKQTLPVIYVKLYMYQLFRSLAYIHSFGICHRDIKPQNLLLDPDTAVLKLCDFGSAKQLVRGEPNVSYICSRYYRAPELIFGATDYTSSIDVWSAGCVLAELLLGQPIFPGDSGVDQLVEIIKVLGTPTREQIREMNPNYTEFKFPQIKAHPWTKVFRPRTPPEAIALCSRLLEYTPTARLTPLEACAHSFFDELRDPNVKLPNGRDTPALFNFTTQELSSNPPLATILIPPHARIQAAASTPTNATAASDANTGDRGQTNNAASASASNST
Chain of MSK1 (O75582 whole entry, species assumed): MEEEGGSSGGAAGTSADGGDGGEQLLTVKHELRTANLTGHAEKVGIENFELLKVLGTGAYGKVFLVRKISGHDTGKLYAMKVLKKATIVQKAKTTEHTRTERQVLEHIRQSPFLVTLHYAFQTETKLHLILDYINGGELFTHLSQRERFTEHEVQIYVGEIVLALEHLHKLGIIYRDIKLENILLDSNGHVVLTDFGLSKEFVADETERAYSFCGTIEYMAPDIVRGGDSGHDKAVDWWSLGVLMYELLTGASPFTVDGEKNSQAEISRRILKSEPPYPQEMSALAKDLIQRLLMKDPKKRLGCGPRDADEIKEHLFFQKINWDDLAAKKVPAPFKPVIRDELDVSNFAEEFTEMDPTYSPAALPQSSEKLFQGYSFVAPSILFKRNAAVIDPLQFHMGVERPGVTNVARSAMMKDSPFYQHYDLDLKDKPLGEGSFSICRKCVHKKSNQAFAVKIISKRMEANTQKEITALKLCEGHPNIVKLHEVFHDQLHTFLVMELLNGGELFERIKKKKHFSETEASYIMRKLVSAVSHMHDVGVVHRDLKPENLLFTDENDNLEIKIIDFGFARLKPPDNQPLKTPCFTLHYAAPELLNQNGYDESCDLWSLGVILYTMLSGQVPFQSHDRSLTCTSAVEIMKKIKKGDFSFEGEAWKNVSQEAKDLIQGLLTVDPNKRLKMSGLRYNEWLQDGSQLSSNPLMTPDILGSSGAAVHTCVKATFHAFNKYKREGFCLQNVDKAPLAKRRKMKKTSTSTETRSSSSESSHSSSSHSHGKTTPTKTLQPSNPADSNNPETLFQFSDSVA

Take `C=CC[C@@H](NC)[C@H]1CC[C@H](C(=O)Nc2ccncc2)CC1.Cl.Cl` (relative stereo) [BA-1028, (R,S)-trans-4-[(N′-methyl)-but-3′-en-1′-amino]-N-(4″-pyridyl)cyclohexane Carboxamide Dihydrochloride]: in data set [1], the “activity towards GSKB (FIG. 10)” value is reported as “can exert activity”.
Same read-out and setting: next, `C=CC[C@@H](NCc1ccccc1)[C@H]1CC[C@H](C(=O)Nc2ccncc2)CC1.Cl.Cl` (relative stereo) [BA-1029, (R,S)-trans-4-[(N′-benzyl)-but-3′-en-1′-amino]-N-(4″-pyridyl)cyclohexane Carboxamide Dihydrochloride]: “can exert activity”.
As for `C[C@@H](N)[C@H]1CC[C@H](C(=O)Nc2ccncc2)CC1.Cl.Cl` (relative stereo) [Y-27632, (R)-trans-4-(Ethan-1′-amino)-N-(4″-pyridyl)cyclohexane Carboxamide Dihydrochloride], the toxicity entry in data set [2] is recorded as “not toxic”. The “inhibition of MSK1” value in data set [3] is on record as “inhibits”. The “inhibition of PRK2” value in data set [4] is “inhibits”. Also, the “inhibition of PHK” value in [5] was “inhibits”. Moreover, the blood pressure entry was “reduces blood pressure” in data set [6] (hypertensive rats) and “does not affect blood pressure” in data set [6] (normal rats). The “inhibition of MAPKAP-K1b” value in [7] was “inhibits”.
For `C=CC[C@@H](N)[C@H]1CC[C@H](C(=O)Nc2ccncc2)CC1.Cl.Cl` (stereo in doubt) [BA-1003], the “neurite outgrowth on inhibitory MAG substrates (FIG. 4)” value in [8] is “can promote neurite outgrowth; also recorded: able to overcome growth inhibition by MAG”. For the same compound, the “neurite outgrowth (FIG. 2)” value in data set [9] is “promote neurite outgrowth”.
For `C=CC[C@H](N)[C@H]1CC[C@H](C(=O)Nc2ccncc2)CC1.Cl.Cl` (stereo in doubt) [BA-1017], in [10], the “inhibition of ROCKII activity (FIG. 3)” value was “inhibition of ROCKII activity”. The “neurite outgrowth on MAG substrates at the lowest concentration tested” value in data set [8] (PC12 cells, 0.31 uM) is given as “better neurite outgrowth; also recorded: effective”. In data set [8], the “neurite outgrowth on inhibitory MAG substrates (FIG. 4)” value is given as “can promote neurite outgrowth; also recorded: able to overcome growth inhibition by MAG”. In addition, in data set [9], the “neurite outgrowth (FIG. 2)” value is on record as “promote neurite outgrowth”.
For `Cl.Cl.O=C(Nc1ccncc1)[C@H]1CC[C@H](NNCC(c2ccccc2)c2ccccc2)CC1` [BA-1034, trans-4-{N′-[2′,2′-(Diphenyl)ethyl]hydrazino}-N-(4′″-pyridyl)cyclohexane Carboxamide Dihydrochloride], in data set [1], the “activity towards GSKB (FIG. 10)” value is listed as “can exert activity”.
The same measure, in the same setting: next, `Cl.Cl.O=C(Nc1ccncc1)[C@H]1CC[C@H](NNCc2ccc(OCc3ccccc3)cc2)CC1` [BA-1035, trans-4-{N′-[4′-(Benzyloxy)benzyl]hydrazino}-N-(4′″-pyridyl)cyclohexane Carboxamide Dihydrochloride]: “can exert activity”; `Cl.Cl.O=C(Nc1ccncc1)[C@H]1CC[C@H](NNCC2CCCCC2)CC1` [BA-1036, trans-4-{N′-[(Cyclohexyl)methyl]hydrazino}-N-(4′″-pyridyl)cyclohexane Carboxamide Dihydrochloride]: “can exert activity”.
Still for that read-out and setting: next, `Cl.Cl.O=C(Nc1ccncc1)[C@H]1CC[C@H](NNC/C=C/c2ccccc2)CC1` [BA-1038, 1,4-trans-2′,3′-trans-4-{N′-[3′-(Phenyl)prop-2′-enyl]hydrazino}-N-(4′″-pyridyl)cyclohexane Carboxamide Dihydrochloride]: “can exert activity”.
